What was measured:
[1] = target: T1, human recombinant MLK3 protein (Homo sapiens, UniProt Q16584); test: MLK3 kinase activity assay (Eurofins, gamma-33P-ATP, filtermat scintillation counting); format: biochemical; conditions: human recombinant MLK3, 120 minutes at room temperature
T1 construct: purchased Eurofins

[2] = target: T2, human recombinant LRRK2 protein (Homo sapiens, UniProt Q5S007); test: LRRK2 kinase activity assay (Eurofins, gamma-33P-ATP, filtermat scintillation counting); format: biochemical; conditions: human recombinant LRRK2, 40 minutes at room temperature
T2 construct: purchased Eurofins
T2 sequence (Q5S007 whole entry): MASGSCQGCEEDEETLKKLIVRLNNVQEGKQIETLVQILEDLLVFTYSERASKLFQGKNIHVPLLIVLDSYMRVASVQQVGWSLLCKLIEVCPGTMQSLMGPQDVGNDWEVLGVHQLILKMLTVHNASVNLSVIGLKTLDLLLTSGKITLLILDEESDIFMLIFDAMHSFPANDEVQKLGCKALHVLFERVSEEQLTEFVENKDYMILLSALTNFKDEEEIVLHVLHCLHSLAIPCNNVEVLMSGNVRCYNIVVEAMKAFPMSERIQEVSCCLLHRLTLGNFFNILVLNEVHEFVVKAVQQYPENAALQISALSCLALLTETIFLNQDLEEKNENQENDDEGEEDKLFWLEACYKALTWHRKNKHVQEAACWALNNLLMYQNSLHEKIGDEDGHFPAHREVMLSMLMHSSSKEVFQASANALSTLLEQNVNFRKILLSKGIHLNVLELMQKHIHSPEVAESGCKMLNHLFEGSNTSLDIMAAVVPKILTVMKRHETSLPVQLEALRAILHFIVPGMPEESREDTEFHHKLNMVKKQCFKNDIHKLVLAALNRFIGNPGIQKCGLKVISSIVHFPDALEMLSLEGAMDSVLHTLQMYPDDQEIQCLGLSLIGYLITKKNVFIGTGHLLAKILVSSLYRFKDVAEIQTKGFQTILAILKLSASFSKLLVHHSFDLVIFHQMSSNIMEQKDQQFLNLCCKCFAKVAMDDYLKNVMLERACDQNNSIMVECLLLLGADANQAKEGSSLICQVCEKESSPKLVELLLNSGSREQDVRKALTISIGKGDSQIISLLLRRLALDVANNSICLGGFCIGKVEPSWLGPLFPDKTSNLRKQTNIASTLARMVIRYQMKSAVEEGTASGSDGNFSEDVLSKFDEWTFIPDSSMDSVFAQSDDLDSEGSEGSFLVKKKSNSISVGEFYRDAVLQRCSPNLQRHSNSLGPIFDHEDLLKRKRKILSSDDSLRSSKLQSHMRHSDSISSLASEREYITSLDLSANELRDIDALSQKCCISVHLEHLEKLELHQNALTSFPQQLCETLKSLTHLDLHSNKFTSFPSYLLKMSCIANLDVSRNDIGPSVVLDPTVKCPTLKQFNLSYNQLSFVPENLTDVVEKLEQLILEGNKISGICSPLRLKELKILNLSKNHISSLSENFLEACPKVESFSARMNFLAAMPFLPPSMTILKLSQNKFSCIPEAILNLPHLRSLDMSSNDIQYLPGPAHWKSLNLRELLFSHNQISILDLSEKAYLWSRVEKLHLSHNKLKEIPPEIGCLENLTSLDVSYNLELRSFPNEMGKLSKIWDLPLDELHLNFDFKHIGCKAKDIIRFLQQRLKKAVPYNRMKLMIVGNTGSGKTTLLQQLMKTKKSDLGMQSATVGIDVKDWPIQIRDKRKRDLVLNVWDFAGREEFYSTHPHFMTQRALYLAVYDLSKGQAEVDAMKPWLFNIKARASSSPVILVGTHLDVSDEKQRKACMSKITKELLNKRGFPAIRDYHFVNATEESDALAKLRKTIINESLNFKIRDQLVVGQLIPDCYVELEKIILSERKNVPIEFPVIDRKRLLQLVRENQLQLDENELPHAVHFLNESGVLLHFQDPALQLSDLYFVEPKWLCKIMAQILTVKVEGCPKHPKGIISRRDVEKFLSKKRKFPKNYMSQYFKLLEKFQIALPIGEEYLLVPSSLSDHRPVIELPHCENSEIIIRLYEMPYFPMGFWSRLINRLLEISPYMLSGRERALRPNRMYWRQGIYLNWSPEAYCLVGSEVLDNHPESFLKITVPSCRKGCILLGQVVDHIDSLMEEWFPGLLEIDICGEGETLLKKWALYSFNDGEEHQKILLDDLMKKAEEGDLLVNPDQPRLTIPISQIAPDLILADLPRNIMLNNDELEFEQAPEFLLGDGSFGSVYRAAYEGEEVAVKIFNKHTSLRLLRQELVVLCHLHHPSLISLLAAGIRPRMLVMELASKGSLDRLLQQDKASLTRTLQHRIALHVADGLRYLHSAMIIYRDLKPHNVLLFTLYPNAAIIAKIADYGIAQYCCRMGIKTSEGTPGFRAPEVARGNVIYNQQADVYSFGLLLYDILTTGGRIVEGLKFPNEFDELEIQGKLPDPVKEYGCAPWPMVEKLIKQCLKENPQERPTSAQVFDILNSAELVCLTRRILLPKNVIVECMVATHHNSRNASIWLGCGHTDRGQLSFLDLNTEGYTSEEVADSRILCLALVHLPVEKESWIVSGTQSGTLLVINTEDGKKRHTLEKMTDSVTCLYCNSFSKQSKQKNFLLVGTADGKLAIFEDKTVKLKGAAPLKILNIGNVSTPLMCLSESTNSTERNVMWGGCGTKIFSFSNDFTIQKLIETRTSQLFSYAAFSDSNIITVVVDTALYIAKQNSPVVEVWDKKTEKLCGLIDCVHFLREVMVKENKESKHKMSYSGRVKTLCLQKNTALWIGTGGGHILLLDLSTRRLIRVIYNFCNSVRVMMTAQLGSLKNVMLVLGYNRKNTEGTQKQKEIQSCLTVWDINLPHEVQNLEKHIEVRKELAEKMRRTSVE

[3] = system: HepG2 cancer cells; test: Anticancer activity, cell viability by CCK-8, HepG2; format: cell-based; conditions: HepG2, 10 μM, 72 hours
How it was run: (§1)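 HS746T or HepG2 cells seeded at 4,000 cells/well, left 24 h, then exposed to compounds for 72 h. Viability measured by CCK-8 and expressed as % of untreated control.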

[4] = system: HS746T cancer cells; test: Anticancer activity, cell viability by CCK-8, HS746T; format: cell-based; conditions: 72 hours
How it was run: as §1

T1 sequence (Q16584 whole entry): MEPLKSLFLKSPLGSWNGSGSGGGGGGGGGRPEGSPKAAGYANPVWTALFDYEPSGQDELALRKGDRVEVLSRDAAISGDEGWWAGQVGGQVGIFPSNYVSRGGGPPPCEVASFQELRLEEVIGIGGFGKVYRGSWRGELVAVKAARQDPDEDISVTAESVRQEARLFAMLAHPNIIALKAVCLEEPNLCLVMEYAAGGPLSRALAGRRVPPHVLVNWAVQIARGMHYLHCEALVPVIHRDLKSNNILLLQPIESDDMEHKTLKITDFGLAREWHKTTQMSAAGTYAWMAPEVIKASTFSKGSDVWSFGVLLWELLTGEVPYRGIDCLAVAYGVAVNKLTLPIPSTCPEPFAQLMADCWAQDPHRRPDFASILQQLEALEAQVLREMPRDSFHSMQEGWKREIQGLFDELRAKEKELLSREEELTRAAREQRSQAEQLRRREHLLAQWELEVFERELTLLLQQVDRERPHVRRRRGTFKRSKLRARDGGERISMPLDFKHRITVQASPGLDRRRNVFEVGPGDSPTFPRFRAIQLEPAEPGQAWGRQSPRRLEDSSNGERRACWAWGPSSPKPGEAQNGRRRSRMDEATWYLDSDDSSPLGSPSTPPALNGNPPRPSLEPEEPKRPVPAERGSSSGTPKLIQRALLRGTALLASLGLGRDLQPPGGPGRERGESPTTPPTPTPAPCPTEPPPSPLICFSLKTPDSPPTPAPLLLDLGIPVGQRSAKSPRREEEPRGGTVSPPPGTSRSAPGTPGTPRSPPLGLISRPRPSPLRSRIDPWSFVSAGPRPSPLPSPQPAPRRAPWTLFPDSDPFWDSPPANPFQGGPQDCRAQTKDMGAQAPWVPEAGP

SMILES | IC50 [1] [nM] | IC50 [2] [nM] | Cell viability (% of Con. 10 μM) HepG2 [3] | Cell viability (% of Con. 10 μM) HS746T [4]
CP(C)(=O)c1ccccc1Nc1nc(N2CCc3c(N)cccc3C2)ncc1Cl [compound 9, (2-((2-(5-Amino-3,4-dihydroisoquinolin-2(1H)-yl)-5-chloropyrimidin-4-yl)amino)phenyl)dimethylphosphine oxide] | > 1000 | > 1000 | 110 % of Con. | 104 % of Con.
CC(=O)N1CC=C(c2n[nH]c3ccc(Nc4ncc(Cl)c(Nc5ccccc5P(C)(C)=O)n4)cc23)CC1 [compound 99, 1-(4-(5-((5-Chloro-4-((2-(dimethylphosphoryl)phenyl)amino)pyrimidin-2-yl)amino)-1H-indazol-3-yl)-3,6-dihydropyridin-1(2H)-yl)ethan-1-one] | 1 to 10 | 1 to 10 | 26 % of Con. | 9 % of Con.
CC(C)(C)OC(=O)N1CCN(c2ccc(-c3n[nH]c4ccc(Nc5ncc(Cl)c(Nc6ccccc6P(C)(C)=O)n5)cc34)cc2)CC1 [compound 117, Tert-butyl 4-(4-(5-((5-chloro-4-((2-(dimethylphosphoryl)phenyl)amino)pyrimidin-2-yl)amino)-1H-indazol-3-yl)phenyl)piperazine-1-carboxylate] | 1 to 10 | 10 to 100 | 68 % of Con. | 20 % of Con.
CC1NCCc2ccc(Nc3ncc(Cl)c(Nc4ccccc4P(C)(C)=O)n3)cc21 (stereo not drawn) [compound 51, (2-((5-Chloro-2-((1-methyl-1,2,3,4-tetrahydroisoquinolin-7-yl)amino)pyrimidin-4-yl)amino)phenyl)dimethylphosphine oxide] | 1 to 10 | 1 to 10 | 24 % of Con. | 2 % of Con.
CP(C)(=O)c1ccccc1Nc1nc(Nc2ccc3ncsc3c2)ncc1Cl [compound 11, (2-((2-(Benzo[d]thiazol-6-ylamino)-5-chloropyrimidin-4-yl)amino)phenyl)dimethylphosphine oxide] | 1 to 10 | 1 to 10 | 28 % of Con. | 27 % of Con.
CC(=O)c1ccc(-c2n[nH]c3ccc(Nc4ncc(Cl)c(Nc5ccccc5P(C)(C)=O)n4)cc23)cc1 [compound 106, 1-(4-(5-((5-chloro-4-((2-(dimethylphosphoryl)phenyl)amino)pyrimidin-2-yl)amino)-1H-indazol-3-yl)phenyl)ethan-1-one] | 1 to 10 | 10 to 100 | 75 % of Con. | 17 % of Con.
COc1cc2c(cc1Nc1ncc(Cl)c(Nc3ccccc3P(C)(C)=O)n1)CN(C(=O)C(F)(F)F)CC2 [compound 62, 1-(7-((5-chloro-4-((2-(dimethylphosphoryl)phenyl)amino)pyrimidin-2-yl)amino)-6-methoxy-3,4-dihydroisoquinolin-2(1H)-yl)-2,2,2-trifluoroethan-1-one] | 1 to 10 | 1 to 10 | 26 % of Con. | 13 % of Con.
CC(C)Oc1cc(F)cc(-c2n[nH]c3ccc(Nc4ncc(Cl)c(Nc5ccccc5P(C)(C)=O)n4)cc23)c1 [compound 115, (2-((5-Chloro-2-((3-(3-fluoro-5-isopropoxyphenyl)-1H-indazol-5-yl)amino)pyrimidin-4-yl)amino)phenyl)dimethylphosphine oxide] | 1 to 10 | 1 to 10 | 50 % of Con. | 10 % of Con.
CC(C)C1NCCc2ccc(Nc3ncc(Cl)c(Nc4ccccc4P(C)(C)=O)n3)cc21 (stereo not drawn) [compound 55, (2-((5-Chloro-2-((1-isopropyl-1,2,3,4-tetrahydroisoquinolin-7-yl)amino)pyrimidin-4-yl)amino)phenyl)dimethylphosphine oxide] | 1 to 10 | 1 to 10 | 19 % of Con. | 2 % of Con.
CC1(C)c2cc(Nc3ncc(Cl)c(Nc4ccccc4P(C)(C)=O)n3)ccc2CCN1C(=O)C(F)(F)F [compound 42, 1-(7-((5-Chloro-4-((2-(dimethylphosphoryl)phenyl)amino)pyrimidin-2-yl)amino)-1,1-dimethyl-3,4-dihydroisoquinolin-2(1H)-yl)-2,2,2-trifluoroethan-1-one] | 1 to 10 | 1 to 10 | 48 % of Con. | 30 % of Con.
Cc1cc2cc(Nc3ncc(Cl)c(Nc4ccccc4P(C)(C)=O)n3)ccc2[nH]1 [compound 69, (2-((5-Chloro-2-((2-methyl-1H-indol-5-yl)amino)pyrimidin-4-yl)amino)phenyl)dimethylphosphine oxide] | 1 to 10 | 1 to 10 | 29 % of Con. | 23 % of Con.

Further lines, with some results ahead:

IC50 [1] [nM] | IC50 [2] [nM] | SMILES | Cell viability (% of Con. 10 μM) HepG2 [3] | Cell viability (% of Con. 10 μM) HS746T [4]
10 to 100 | 1 to 10 | Cc1ccc(Nc2ncc(Cl)c(Nc3ccccc3P(C)(C)=O)n2)c2[nH]cc(C#N)c12 [compound 70, 7-((5-chloro-4-((2-(dimethylphosphoryl)phenyl)amino)pyrimidin-2-yl)amino)-4-methyl-1H-indole-3-carbonitrile] | 30 % of Con. | 25 % of Con.
1 to 10 | 1 to 10 | Cn1cc(-c2n[nH]c3ccc(Nc4ncc(Cl)c(Nc5ccccc5P(C)(C)=O)n4)cc23)cn1 [compound 94, (2-((5-Chloro-2-((3-(1-methyl-1H-pyrazol-4-yl)-1H-indazol-5-yl)amino)pyrimidin-4-yl)amino)phenyl)dimethylphosphine oxide] | 30 % of Con. | 15 % of Con.
> 1000 | 100 to 1000 | CC(C)C1c2cc(Nc3ncc(F)c(NC4CCN(S(C)(=O)=O)CC4)n3)ccc2CCN1C(=O)C(F)(F)F (stereo not drawn) [compound 58, 2,2,2-Trifluoro-1-(7-((5-fluoro-4-((1-(methylsulfonyl)piperidin-4-yl)amino)pyrimidin-2-yl)amino)-1-isopropyl-3,4-dihydroisoquinolin-2(1H)-yl)ethan-1-one] | 83 % of Con. | 85 % of Con.
1 to 10 | 10 to 100 | CP(C)(=O)c1ccccc1Nc1nc(Nc2ccc3[nH]nc(-c4ccc(CO)o4)c3c2)ncc1Cl [compound 101, (2-((5-chloro-2-((3-(5-(hydroxymethyl)furan-2-yl)-1H-indazol-5-yl)amino)pyrimidin-4-yl)amino)phenyl)dimethylphosphine oxide] | 56 % of Con. | 13 % of Con.
1 to 10 | 10 to 100 | COc1cc(Cl)cc(-c2n[nH]c3ccc(Nc4ncc(Cl)c(Nc5ccccc5P(C)(C)=O)n4)cc23)c1 [compound 113, (2-((5-Chloro-2-((3-(3-chloro-5-methoxyphenyl)-1H-indazol-5-yl)amino)pyrimidin-4-yl)amino)phenyl)dimethylphosphine oxide] | 16 % of Con. | 26 % of Con.
1 to 10 | 1 to 10 | CP(C)(=O)c1ccccc1Nc1nc(Nc2ccc3c(c2)CCN(C(=O)C(F)(F)F)C3)ncc1Cl [compound 48, 1-(6-((5-Chloro-4-((2-(dimethylphosphoryl)phenyl)amino)pyrimidin-2-yl)amino)-3,4-dihydroisoquinolin-2(1H)-yl)-2,2,2-trifluoroethan-1-one] | 37 % of Con. | 9 % of Con.
> 1000 | > 1000 | Cc1cc(Nc2ncc(Cl)c(Nc3ccccc3P(C)(C)=O)n2)ccn1 [compound 10, (2-((5-Chloro-2-((2-methylpyridin-4-yl)amino)pyrimidin-4-yl)amino)phenyl)dimethylphosphine oxide] | 91 % of Con. | 120 % of Con.
